# From US20230357447A1, “TUMOR ACTIVATED MULTISPECIFIC ANTIBODIES FOR TARGETING CD28 AND PD-L1 AND METHODS OF USE THEREOF” (Janux Therapeutics, Inc., priority 2022, published 2023)
# System: anti-CD28 scFv
# Experiment: Phage binding ELISA (panning) of clonal phage on anti-CD28 scFv, with or without CD28 soluble protein
# Details: for Phage binding ELISA Backgroud signal / Backgroud signal: clonal phage supernatant; for CD28 scFv signal in presence of CD28 / CD28 scFv signal / Backgroud signal: Phage binding ELISA; for CD28 scFv signal in presence of CD28: captured anti-CD28 scFv pre-incubated with CD28 soluble protein; for CD28 scFv signal: captured biotinylated anti-CD28 scFv; for CD28 scFv signal / Phage binding ELISA CD28 scFv signal: blocking buffer alone; for Backgroud signal: background wells; for Phage binding ELISA CD28 scFv signal in presence of CD28: clonal phage supernatant on captured anti-CD28 scFv pre-incubated with CD28 soluble protein; for Phage binding ELISA CD28 scFv signal: clonal phage supernatant on captured biotinylated anti-CD28 scFv
# Description: Clonal phage were harvested as crude supernatants and screened via standard enzyme linked immunosorbent assays (ELISAs). […] Prior to the addition of clonal phage, wells were incubated with blocking buffer and CD28 soluble protein or blocking buffer alone. Without washing or aspirating, clonal phage supernatants were then added to the wells and incubated for a short time. Wells were then washed followed by detection of bound phage using a horse radish peroxidase conjugated anti-M13 antibody. Clonal phage of interest were then sent for sequence analysis.
# [1] = background (no anti-CD28 scFv signal)
Substance,Phage binding ELISA Backgroud signal (background signal),also measured
Phage-162 (MNWCPTDLWHECFN),0.087,–
Phage-341 (MDWCPRHLWDECFN),0.084,–
Phage-322 (MDWCPRHLWIECFN),0.339,–
Phage-96 (MDWCPRTLWAYCFN),–,CD28 scFv signal in presence of CD28: 0.584; CD28 scFv signal: 2.571; Backgroud signal: 0.070
Phage-422 (MYWCPINMWDYCYA),–,Phage binding ELISA Backgroud signal [1]: 0.122
Phage-353 (IDWCPLHLWHECYH),0.067,–
Phage-217 (MDWCPWDMWDKCFN),0.101,–
Phage-198 (MDWCPRAMWNHCFN),0.321,–
Phage-418 (MYWCPKYMWSECFA),–,Phage binding ELISA Backgroud signal [1]: 0.072
Phage-151 (MDFCPISLWHECFF),–,Backgroud signal: 0.081
Phage-54 (MNWCPRDMWYQCFN),0.068,–
Phage-321 (MDWCPRDLWYVCFA),0.095,–
Phage-449 (MVDCPLISFDECLA),–,Phage binding ELISA Backgroud signal [1]: 0.246
Phage-138 (MDWCPTNLWHECFA),–,Backgroud signal: 0.061
Phage-300 (MDWCPRHLWFECFF),0.178,–
Phage-382 (ITWCPTSLWNRCLV),–,Phage binding ELISA Backgroud signal [1]: 0.077
Phage-317 (MDWCPRHLWHECFT),0.103,–
Phage-291 (MDWCPRYLWHVCFY),0.227,–
Phage-119 (MDWCPRYLWHMCYS),–,Backgroud signal: 0.129
Phage-208 (MDWCPTDMWIVCFA),0.363,–
Phage-440 (MDWCPRDRWVDCFN),–,Phage binding ELISA Backgroud signal [1]: 0.106
Phage-180 (MHWCPRYLWDECFN),0.132,–
Phage-72 (MFWCPTTMWNRCFT),0.111,Phage binding ELISA CD28 scFv signal in presence of CD28: 0.338; Phage binding ELISA CD28 scFv signal: 0.662

Substance,Phage binding ELISA Backgroud signal (background signal),also measured
Phage-65 (MDWCPMYLWNECFN),0.064,Phage binding ELISA CD28 scFv signal in presence of CD28: 0.471; Phage binding ELISA CD28 scFv signal: 2.609
Phage-156 (MDWCPKHLWHQCFH),–,Backgroud signal: 0.058
Phage-364 (MDWCPRSLWAQCFY),0.067,–
Phage-432 (IDWCPIIQGLPCFA),–,Phage binding ELISA Backgroud signal [1]: 0.058
Phage-309 (MDWCPMFLWHECFN),0.170,–
Phage-361 (MHWCPRHLWSECFN),0.165,–
Phage-172 (MDWCPPYLWYECFA),0.068,–
Phage-164 (MDWCPKFLWDLCFA),0.100,–
Phage-139 (MDWCPRDLWDVCFA),–,Backgroud signal: 0.096
Phage-144 (MDWCPRHLWYACFN),–,Backgroud signal: 0.061
Phage-192 (DVWCPKYMWSLCFN),0.101,–
Phage-334 (MDWCPRYLWDECFS),0.069,–
Phage-62 (MDWCPSYLWNECFF),0.065,–
Phage-166 (MDWCPRHLWDLCFA),0.061,–
Phage-41 (MAWCPRDKWSECFS),0.062,–
Phage-133 (MDWCPRFLWDECFF),–,Backgroud signal: 0.064
Phage-292 (MDWCPRALWDHCFF),0.081,–
Phage-169 (MDWCPRDLWNVCFN),0.100,–
Phage-124 (MDWCPRPLWDMCFF),–,Backgroud signal: 0.063
Phage-350 (MDWCPWFLWNECFN),0.158,–
Phage-266 (VTSCPTTMWNRCFS),0.396,–
Phage-127 (MDWCPRALWNECFA),–,Backgroud signal: 0.080
Phage-100 (MDWCPRYLWTECFN),–,Backgroud signal: 0.062

Substance,Phage binding ELISA Backgroud signal (background signal),also measured
Phage-203 (MSWCPRDMWFYCYA),0.065,–
Phage-324 (MDWCPRHLWYECFS),0.216,–
Phage-311 (MDWCPRDLWYQCFN),0.069,–
Phage-125 (MDWCPVSLWHVCFY),–,Backgroud signal: 0.107
Phage-78 (MDWCPRHLWHECFN),0.070,Phage binding ELISA CD28 scFv signal in presence of CD28: 0.704; Phage binding ELISA CD28 scFv signal: 2.654
Phage-163 (MFWCPRYLWHECFN),0.086,–
Phage-212 (MDWCPRAMWDKCFF),0.073,–
Phage-187 (IGKLTLCLNADLVI),0.274,–
Phage-376 (MDWCPRHLWTYCFH),0.109,–
Phage-410 (IDWCPRYMWHECFF),–,Phage binding ELISA Backgroud signal [1]: 0.098
Phage-377 (MDWCPFDLWLECFN),0.087,–
Phage-75 (MDWCPRSHWHVCYN),0.072,–
Phage-86 (MDWCPRHLWAECFF),0.066,–
Phage-80 (MDWCPMYLWNECFS),0.071,–
Phage-451 (MDWCPRFWWHECYA),–,Phage binding ELISA Backgroud signal [1]: 0.246
Phage-388 (MDWCPRFMWNFCFF),–,Phage binding ELISA Backgroud signal [1]: 2.200
Phage-130 (MDWCPRYLWDACFF),–,Backgroud signal: 0.066
Phage-332 (IDWCPRALWDACLA),0.269,–
Phage-71 (MDWCPRYLWHECFA),0.071,–
Phage-426 (MFLCPSAMWNRCFY),–,Phage binding ELISA Backgroud signal [1]: 0.069
Phage-269 (DSFCTWSAWQECGR),0.072,–
Phage-360 (MDWCPMFLWHECFS),0.092,–
Phage-79 (MDWCPRDLWHECFS),0.066,–

Substance,Phage binding ELISA Backgroud signal (background signal),also measured
Phage-446 (MDWCPRDRWDDCFN),–,Phage binding ELISA Backgroud signal [1]: 0.069
Phage-87 (MDWCPKDLWYLCFA),–,CD28 scFv signal in presence of CD28: 0.213; CD28 scFv signal: 2.608; Backgroud signal: 0.200
Phage-325 (MDWCPAYLWDECFA),0.096,–
Phage-225 (MDWCPRDRWADCFF),0.069,–
Phage-43 (MDWCPRALWHECFY),0.115,Phage binding ELISA CD28 scFv signal in presence of CD28: 0.252; Phage binding ELISA CD28 scFv signal: 2.499
Phage-368 (MSWCPPYLWTVCYN),0.176,–
Phage-349 (LDWCPRHLWALCFN),0.073,–
Phage-351 (MDWCPMNLWHECFA),0.080,–
Phage-88 (MDWCPIHLWHYCFN),–,Backgroud signal: 0.078
Phage-407 (MNWCPIHMWNQCFA),–,Phage binding ELISA Backgroud signal [1]: 0.085
Phage-336 (MDWCPRDLWNWCFN),0.139,–
Phage-83 (MDWCPRFLWDECFN),0.065,–
Phage-302 (MDWCPRYLWHVCFD),0.068,–
Phage-391 (MDWCPFDMWADCFF),–,Phage binding ELISA Backgroud signal [1]: 0.063
Phage-442 (IYWCPIDRWNDCYN),–,Phage binding ELISA Backgroud signal [1]: 0.177
Phage-347 (MDWCPLFLWDQCFN),0.116,–
Phage-178 (LDWCPRDLWHVCFF),0.176,–
Phage-405 (MDWCPMSMWAFCFD),–,Phage binding ELISA Backgroud signal [1]: 0.102
Phage-146 (MDWCPRHLWSECFY),–,Backgroud signal: 0.136
Phage-70 (ITWCPSSMWNRCFI),0.065,–
Phage-417 (IYWCPTAMWNRCSA),–,Phage binding ELISA Backgroud signal [1]: 0.086
Phage-247 (MDWCPRFMWAECFN),0.073,–
Phage-256 (MDWCPFDLWHVCYN),0.089,–

Substance,Phage binding ELISA Backgroud signal (background signal),also measured
Phage-39 (MDWCPMHLWHQCFN),0.073,–
Phage-265 (MDWCPRFMWDLCFA),0.270,–
Phage-386 (NHWCPTTLWNRCVA),–,Phage binding ELISA Backgroud signal [1]: 0.293
Phage-215 (MDWCPRYMWNECFN),0.064,–
Phage-444 (VNQCTRYRWAECLN),–,Phage binding ELISA Backgroud signal [1]: 0.465
Phage-171 (MNWCPSHLWHMCYF),0.195,–
Phage-157 (MDWCPRSLWSYCFH),–,Backgroud signal: 0.066
Phage-366 (MHWCPLYLWDECFY),0.153,–
Phage-77 (MDWCPFYLWDECFN),0.092,Phage binding ELISA CD28 scFv signal in presence of CD28: 0.291; Phage binding ELISA CD28 scFv signal: 2.672
Phage-259 (MDWCPRNLWHACFN),0.071,–
Phage-53 (MDWCPMHLWNKCFN),0.071,–
Phage-183 (IDWCPRDLWALCFN),0.127,–
Phage-206 (IHWCPINMWDKCYN),0.060,–
Phage-329 (MDWCPRALWNVCFA),0.071,–
Phage-357 (MDWCPRLLWHECFN),0.071,–
Phage-60 (MDWCPRTLWYLCFN),0.508,Phage binding ELISA CD28 scFv signal in presence of CD28: 1.198; Phage binding ELISA CD28 scFv signal: 2.593
Phage-356 (MDWCPMYLWDECFF),0.082,–
Phage-52 (MDWCPINLWDECFS),0.062,–
Phage-290 (MDWCPRDLWSVCFS),0.090,–
Phage-280 (MDWCPRYLWDYCFA),0.073,–
Phage-231 (VPWCLIISGLDCLN),0.455,–
